Reference: the NIST ThermoML archive (doi:10.1016/j.tca.2013.08.031)

Conditions: for mass density: isochoric method

CCC(C)O (centres undefined) [butan-2-ol]
Conditions	Critical density [kg/m3]	Critical temperature [K]	mass density [kg/m3]
306.95 K, Liquid	–	–	794.06
335.35 K, Liquid	–	–	769.05
367.55 K, Liquid	–	–	735.98
408.51 K, Liquid	–	–	683.53
433.35 K, Liquid	–	–	648.53
463.85 K, Liquid	–	–	598.18
492.87 K, Liquid	–	–	538.17
504.95 K, Gas	–	–	76.44
514.26 K, Gas	–	–	95.93
515.15 K, Liquid	–	–	474.07
522.2 K, Gas	–	–	117
527.92 K, Gas	–	–	142.27
529.41 K, Liquid	–	–	403.55
533.73 K, Gas	–	–	184.89
534.55 K, Liquid	–	–	347.06
534.68 K, Gas	–	–	198.25
535.83 K, Gas	–	–	245.67
535.83 K, Liquid	–	–	301.19
535.89 K, Liquid	–	–	286.65
535.93 K, Liquid	–	–	284.93
535.94 K, Liquid	–	–	279.19
535.95 K, Liquid	–	–	276.45
Liquid, DSC	276.4	–	–
Liquid, DTA	–	535.95	–
